From article PMC3390464 (Phytochemistry, 2012)

Molecular target: Sigma 1 receptor
Assay: competitive radioligand binding assay

Ki: 2900 nM
Substance: 9,13-epoxy-6-hydroxylabdan-15,16-olide [compound 11]
